US20040254128A1, “Treatment and prevention of heat shock protein-associated diseases and conditions” (priority 2001, published 2004)
Read-outs that look alike come from different tables or passages of the source.

Columns and labels:
[1] = system: LPS endotoxin (Escherichia coli 0111:B4)-induced plasma TNF-α; conditions: for TNF-α at 1 hr: plasma 1 hr after LPS; for TNF-α at 2 hr: plasma 2 hr after LPS
Experimental: LPS endotoxin (300 ng/kg) was injected intravenously into untreated dogs (◯) or simultaneously with 0.1 mg/kg E5564 (Δ) one hour after E5564 administration (□) or three hours after E5564 administration (●). Blood was drawn and analyzed for TNF-α concentration by bioassay, as is described in the Appendix, below. Each value represents the mean±S.E.M. of four animals.
In both assays, activity of the antagonist is quantitated by analysis of the cytokines induced by LPS administration.
Escherichia coli LPS (Serotype 0111:B4; phenol extracted, Cat. # L-2630) was purchased from Sigma Chem. Co. Ltd., St. Louis, Mo., USA. Lyophylized E5564 was solubilized in 5 ml of sterile water (Otsuka Pharm. Co. Ltd., Tokyo, Japan). LPS was weighed to an accuracy of 1/10 mg and solubilized in 5% glucose (Otsuka Pharm. Co. Ltd., Tokyo, Japan). The LPS solution was sonicated with a bath-type sonicator for 15 minutes after which aliquots were immediately prepared and stored at −20° C. Prior to use, the solution was sonicated for one or two minutes, and then dilutions were prepared in 5% glucose.
Nine month-old beagles were obtained from Kawashima-shoji Co. Ltd., Gifu, Japan) and housed in stainless steel wire cages (W 800 mm×D 680 mm×H 680 mm; one dog per cage) in a room with a constant temperature of 20-24° C., humidity of 45-65%, and 12 hour light-dark cycle. The animals were provided with pellet food (DS, Oriental Yeast Co., Tokyo, Japan) and water ad libitum. LPS endotoxin (300 ng/0.1 ml/kg) was injected into the vein of the right foreleg at a rate of 1-2 ml/min, and E5564 was injected into the vein of the left foreleg at a rate of 10-20 ml/min.
Immediately before or 1, 2, or 4 hours after intravenous injection of LPS and E5564, 1.5 ml of blood was drawn from the left cephalic vein. One milliliter was transferred into a tube containing 10 U of heparin (Mochida Pharm. Co. Ltd., Tokyo, Japan), centrifuged (2000×g, 5 minutes, 4° C.), and the plasma was used for bioassays for TNF-α and IL-6.
Aliquots of the plasma were tested for TNF in a bioassay based on the TNF-dependent cell death of L-P3 cells in the presence of actinomycin D. The L-P3 cell line is more sensitive to TNF-induced cell death than the L-929 cell line that is more commonly used.

[2] = Pharmacokinetics in plasma after 72 hours intravenous infusion; conditions: beagle, dog
Experimental: Plasma levels of E5564 were determined during and after 72 hours of intravenous infusion of 0.03 mg/kg/hr E5564 (◯, ●), 0.1 mg/kg/hr E5564 (□, ▪), and 1 mg/kg/hr E5564 (Δ, ▴) into female (closed symbols) or male (open symbols) beagle dogs. At the indicated times, blood was drawn and analyzed for E5564 concentration by extraction and analysis by HPLC. Each value represents the mean±S.E.M. of three animals.

[3] = Pharmacokinetics in plasma after single bolus intravenous injection; conditions: dog
[4] = 0.1 mg/kg E5564 iv one hour before LPS 300 ng/kg iv
[5] = 0.1 mg/kg E5564 iv three hours before LPS 300 ng/kg iv

**Q.** What does the source list for CCCCCC/C=C\CCCCCCCCCC(=O)N[C@H]1[C@H](OC[C@H]2O[C@H](OP(=O)(O)O)[C@H](NC(=O)CC(=O)CCCCCCCCCCC)[C@@H](OCCCCCCCCCC)[C@@H]2O)O[C@H](COC)[C@@H](OP(=O)(O)O)[C@@H]1OCC[C@@H](CCCCCCC)OC [E5564, α-D-Glucopyranose, 3-O-decyl-2-deoxy-6-O-[2-deoxy-3-O-[(3R)-3-methoxydecyl)-6-O-methyl-2-[[(11Z)-1-oxo-11-octadecenyl)amino]-4-O-phosphono-β-D-glucopyranosyl]-2-[(1,3-dioxotetradecyl)amino]-, 1-(dihydrogen phosphate)]?
**A.** Activity of the endotoxin antagonist, % of its original activity ([1]; 0.1 mg/kg E5564, LPS administered three hours after E5564 dose): about 48%; TNF-α at 1 hr [1, 4]: 0 units/ml; TNF-α at 2 hr [1, 4]: 0 units/ml; TNF-α at 1 hr ([1]; 0.1 mg/kg E5564 iv simultaneously with LPS 300 ng/kg iv, n=4 dogs): 0 units/ml; TNF-α at 2 hr ([1]; 0.1 mg/kg E5564 iv simultaneously with LPS 300 ng/kg iv): 0 units/ml; TNF-α at 1 hr [1, 5]: 1353 ± 340 units/ml; TNF-α at 2 hr [1, 5]: 190 ± 113 units/ml; AUC(0-t) ([2]; female, 0.1 mg/kg): 790 ± 51 µg·h/mL; concentration at 72 h ([2]; female, 0.1 mg/kg): 10400 ± 930 ng/mL; half-life ([2]; female, 0.1 mg/kg): 40.9 ± 9.5 h; AUC(0-t) ([2]; female, 0.3 mg/kg): 2620 ± 737 µg·h/mL; concentration at 72 h ([2]; female, 0.3 mg/kg): 32400 ± 5720 ng/mL; half-life ([2]; female, 0.3 mg/kg): 38 ± 11.6 h; AUC(0-t) ([2]; female, 1 mg/kg): 29600 ± 1510 µg·h/mL; concentration at 72 h ([2]; female, 1 mg/kg): 394000 ± 14200 ng/mL; half-life ([2]; female, 1 mg/kg): 32 ± 2.8 h; AUC(0-t) ([2]; male, 0.1 mg/kg): 1070 ± 139 µg·h/mL; concentration at 72 h ([2]; male, 0.1 mg/kg): 13100 ± 1220 ng/mL; half-life ([2]; male, 0.1 mg/kg): 38.4 ± 4.5 h; AUC(0-t) ([2]; male, 0.3 mg/kg): 3310 ± 485 µg·h/mL; concentration at 72 h ([2]; male, 0.3 mg/kg): 41300 ± 7180 ng/mL; half-life ([2]; male, 0.3 mg/kg): 39.9 ± 11.2 h; AUC(0-t) ([2]; male, 1 mg/kg): 27100 ± 5740 µg·h/mL; concentration at 72 h ([2]; male, 1 mg/kg): 366000 ± 69300 ng/mL; half-life ([2]; male, 1 mg/kg): 35.1 ± 8.7 h; AUC ([3]; 0.1 mg/kg): 71.8 µg·h/mL; half-life ([3]; 0.1 mg/kg): 41.7 ± 2.7 h; AUC ([3]; 0.3 mg/kg): 271 ± 28.3 µg·h/mL; half-life ([3]; 0.3 mg/kg): 50.4 ± 2.2 h; AUC ([3]; 1 mg/kg): 744 µg·h/mL; half-life ([3]; 1 mg/kg): 46.4 ± 2.7 h
